Laboratory results reported in patent US20080075695A1, “COMBINATION THERAPY METHOD FOR TREATING HEPATITIS C VIRUS INFECTION AND PHARMACEUTICAL COMPOSITIONS FOR USE THEREIN” (priority 2006, published 2008).

What was measured:
HCV = test: Phase 1b clinical trial (MAD study), plasma HCV RNA; format: in vivo, human; settings: for MEAN Δ change from baseline (log HCV RNA level): on-therapy analysis
Text: A 14 day randomized, double-blind, placebo-controlled, sequential-group study of multiple ascending doses (MAD) included subjects with chronic HCV infection who were naïve to treatment. Subjects were enrolled in sequential, ascending dose cohorts with a target of 16 subjects (12 subjects receiving the BZF and 4 receiving placebo in each cohort). The first cohorts assessed the effect of the BZF as monotherapy compared to placebo. Subsequent cohorts were comprised of subjects who received pegylated interferon alfa-2b (PEG-Intron; 1.5 μg/kg/dose) administered subcutaneously on days −1 and 7 in combination with either placebo or the BZF administered orally (100 mg, 250 mg, 500 mg or 1000 mg every 12 hours, in combinations of 25 mg or 200 mg capsules) from days 1 to 14. […] The mean viral load for each treatment group at study entry was >6.0 log 10 UI/ml HCV RNA.

[1] = biological target: T1, HCV NS5B protein (genotype 1b, BB7) (Hepatitis C virus genotype 1b, UniProt Q9WMX2); test: Inhibition of viral RNA-dependent RNA polymerase (RdRp); format: biochemical; settings: purified HCV NS5B, C-terminal 21 amino acids removed
T1 construct: of which the carboxyl terminal 21 amino acids were removed to enhance its solubility; made in house; host or cells: E. coli
Text: The HCV NS5B-directed RdRp activity was established and characterized in a standard in vitro biochemical assay using a purified HCV NS5B protein derived from the consensus sequence of a patient infected with HCV genotype 1b virus (BB7). (See Blight K J et al., Science. 2000, 290:1972-4). The NS5B consensus sequence was cloned and expressed in E. coli as a histidine tagged ([…]) fusion protein, of which the carboxyl terminal 21 amino acids were removed to enhance its solubility.
In addition to evaluating its activity in the replicon assay, as described above, the BZF of Example 1 was also evaluated for antiviral activity using this assay.

[2] = Day 14, BZF 100 mg, all genotypes
[3] = Day 14, BZF 250 mg, all genotypes
[4] = Day 14, BZF 500 mg, all genotypes
[5] = Day 14, BZF 1000 mg, all genotypes

CNC(=O)c1c(-c2ccc(F)cc2)oc2cc(N(CCO)S(C)(=O)=O)c(C3CC3)cc12 [BZF, 5-cyclopropyl-2-(4-fluoro-phenyl)-6-[(2-hydroxy-ethyl)-methanesulfonyl-amino]-benzofuran-3-carboxylic acid methylamide] was tested, and the “MEAN Δ change from baseline (log HCV RNA level)” value (HCV; Day 4, BZF 500 mg every 12 hours, all genotypes) was −1.43 log, the “MEAN Δ change from baseline (log HCV RNA level)” value (HCV; Day 7, BZF 500 mg every 12 hours, all genotypes) was −1.30 log and the “% Subjects BQL (below quantification limits, <50 IU/mL)” value (HCV; [2]) was 0%. The “% Subjects with ≧1.5 log ↓ in log10 HCV RNA” value (“% Subjects with ≧1.5 log ↓” below) (HCV; [2]) was 2 (17%), the “% Subjects with ≧2 log ↓ in log10 HCV RNA” value (“% Subjects with ≧2 log ↓” below) (HCV; [2]) was 0% and the “% Subjects with ≧3 log ↓ in log10 HCV RNA” value (from here on “% Subjects with ≧3 log ↓”) (HCV; [2]) was 0%. The “% Subjects BQL (below quantification limits, <50 IU/mL)” value (HCV; [3]) was 0%, the “% Subjects with ≧1.5 log ↓” value (HCV; [3]) was 0% and the “% Subjects with ≧2 log ↓” value (HCV; [3]) was 0%. For the same compound, the “% Subjects with ≧3 log ↓” value (HCV; [3]) was 0%, the “MEAN Δ change from baseline (log HCV RNA level)” value (HCV; Day 14, BZF 500 mg every 12 hours, all genotypes) was −0.64 log and the “% Subjects BQL (below quantification limits, <50 IU/mL)” value (HCV; [4]) was 0%. The “% Subjects with ≧1.5 log ↓” value (HCV; [4]) was 1 (8%), the “% Subjects with ≧2 log ↓” value (HCV; [4]) was 1 (8%) and the “% Subjects with ≧3 log ↓” value (HCV; [4]) was 0%. For the same compound, the “% Subjects BQL (below quantification limits, <50 IU/mL)” value (HCV; Day 14, BZF 500 mg, genotype 1) was 0%, the “% Subjects with ≧1.5 log ↓” value (HCV; Day 14, BZF 500 mg, genotype 1) was 1 (13%) and the “% Subjects with ≧2 log ↓” value (HCV; Day 14, BZF 500 mg, genotype 1) was 1 (13%). The “% Subjects with ≧3 log ↓” value (HCV; Day 14, BZF 500 mg, genotype 1) was 0%, the “% Subjects BQL (below quantification limits, <50 IU/mL)” value (HCV; [5]) was 0% and the “% Subjects with ≧1.5 log ↓” value (HCV; [5]) was 2 (17%). The “% Subjects with ≧2 log ↓” value (HCV; [5]) was 2 (17%), the “% Subjects with ≧3 log ↓” value (HCV; [5]) was 1 (8%) and the IC50 [1] was under 500 nM.
